Source: patent US12479830B2, “Homopiperazinyl and homopiperidinyl quinazolin-4(3H)-one derivatives having multimodal activity against pain” (ESTEVE PHARMACEUTICALS, S.A., priority 2019, dated 2025)

Experiments:
[1] = target: Human α2δ-1 subunit of Cav2.2 calcium channel (Homo sapiens, UniProt P54289); assay: Human α2δ-1 subunit of Cav2.2 calcium channel assay ([3H]-gabapentin binding); conditions: binding to the α2δ-1 subunit of voltage-gated calcium channels, expressed as Ki class; + also covers inhibition between 1% and 50%
Outline: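 Affinity (Ki, five concentrations) or % inhibition at 1 or 10 μM, from displacement of 15 nM [3H]-gabapentin on human α2δ-1 membranes. Incubation 60 min, 27° C., Hepes-KOH 10 mM pH 7.4; 10 μM pregabalin defined non-specific binding; bound radioactivity counted after GF/C filtration.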

[2] = target: T1, Human σ1 receptor (Homo sapiens, UniProt Q99720); assay: Human σ1 receptor radioligand assay ([3H](+)-pentazocine binding); conditions: binding to the σ1 receptor, expressed as Ki class; + also covers inhibition between 1% and 50%
T1 construct: expressed in transfected cells; host or cells: HEK-293
Outline: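 Ki was derived from five test concentrations, or % inhibition was measured at a single 1 or 10 μM dose, against 5 nM [3H](+)-pentazocine. Incubation was 120 min at 37° C in 50 mM Tris-HCl pH 8 with 7 μg HEK-293 membranes, and 10 μM haloperidol set non-specific binding. Bound radioactivity was counted after filtration.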

Sequence of Human α2δ-1 subunit of Cav2.2 calcium channel (P54289 25-1103): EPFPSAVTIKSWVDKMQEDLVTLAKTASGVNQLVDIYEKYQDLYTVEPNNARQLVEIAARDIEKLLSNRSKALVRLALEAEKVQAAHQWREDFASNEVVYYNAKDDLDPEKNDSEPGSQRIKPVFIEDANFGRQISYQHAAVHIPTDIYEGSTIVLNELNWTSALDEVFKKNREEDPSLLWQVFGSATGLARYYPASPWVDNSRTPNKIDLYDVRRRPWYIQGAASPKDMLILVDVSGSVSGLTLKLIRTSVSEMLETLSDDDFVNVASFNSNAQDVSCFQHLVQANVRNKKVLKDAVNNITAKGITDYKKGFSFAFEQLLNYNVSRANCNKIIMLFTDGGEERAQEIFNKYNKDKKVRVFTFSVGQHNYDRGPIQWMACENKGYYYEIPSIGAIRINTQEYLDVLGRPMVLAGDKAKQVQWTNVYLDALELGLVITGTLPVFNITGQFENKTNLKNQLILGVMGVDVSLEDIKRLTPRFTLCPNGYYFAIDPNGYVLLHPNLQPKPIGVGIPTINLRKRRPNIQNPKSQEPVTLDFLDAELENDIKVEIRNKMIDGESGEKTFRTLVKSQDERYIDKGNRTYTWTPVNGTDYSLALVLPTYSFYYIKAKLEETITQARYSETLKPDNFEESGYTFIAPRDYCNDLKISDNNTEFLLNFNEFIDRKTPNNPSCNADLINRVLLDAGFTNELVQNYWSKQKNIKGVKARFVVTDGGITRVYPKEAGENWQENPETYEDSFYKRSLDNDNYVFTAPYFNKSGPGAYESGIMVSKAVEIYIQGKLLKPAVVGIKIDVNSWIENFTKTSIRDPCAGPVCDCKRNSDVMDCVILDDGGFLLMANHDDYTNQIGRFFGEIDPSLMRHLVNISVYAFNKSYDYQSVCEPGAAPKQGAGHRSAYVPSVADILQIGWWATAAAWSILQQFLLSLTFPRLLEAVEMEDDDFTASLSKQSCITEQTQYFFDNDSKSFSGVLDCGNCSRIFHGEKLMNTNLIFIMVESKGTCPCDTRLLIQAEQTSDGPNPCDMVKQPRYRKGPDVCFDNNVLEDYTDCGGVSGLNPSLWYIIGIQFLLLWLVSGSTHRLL
T1 sequence (Q99720 whole entry): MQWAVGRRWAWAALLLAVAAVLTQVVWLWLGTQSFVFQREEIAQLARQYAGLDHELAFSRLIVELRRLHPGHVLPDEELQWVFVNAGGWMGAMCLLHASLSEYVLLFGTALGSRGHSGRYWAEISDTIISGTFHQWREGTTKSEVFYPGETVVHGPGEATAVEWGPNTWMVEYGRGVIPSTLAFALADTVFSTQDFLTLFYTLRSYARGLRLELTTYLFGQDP

Row | Ki [1] [µM] | Ki [2] [µM] | SMILES
1 | < 0.5 | 0.5 to 1 | CCC[C@H](c1nc2ccc(Cl)cc2c(=O)n1CC)N1CCN(C)C[C@H](C)C1 [Example 75, 6-chloro-2-((R)-1-((S)-4,6-dimethyl-1,4-diazepan-1-yl)butyl)-3-ethylquinazolin-4(3H)-one]
2 | > 5 | > 1 | CCC[C@H](c1nc2c(F)cc(F)cc2c(=O)n1CC)N1CCN[C@H](C)CC1 [Example 250, 3-ethyl-6,8-difluoro-2-((R)-1-((R)-5-methyl-1,4-diazepan-1-yl)butyl)quinazolin-4(3H)-one]
3 | < 0.5 | > 1 | CCCC(c1nc2cnc(C(F)(F)F)cc2c(=O)n1CC)N1CCCN(C)CC1 (stereo not shown) [Example 192, 3-ethyl-2-(1-(4-methyl-1,4-diazepan-1-yl)butyl)-6-(trifluoromethyl)pyrido[3,4-d]pyrimidin-4(3H)-one]
4 | < 0.5 | > 1 | CCC[C@H](c1nc2ncc(Br)cc2c(=O)n1CC)N1CCN(C)C[C@H](C)C1 [Example 187, 6-bromo-2-((R)-1-((S)-4,6-dimethyl-1,4-diazepan-1-yl)butyl)-3-ethylpyrido[2,3-d]pyrimidin-4(3H)-one]
5 | > 5 | < 0.5 | CCC[C@H](c1nc2ccc(F)cc2c(=O)n1CCC(C)C)N1CCCN(CC)CC1 [Example 221, (R)-2-(1-(4-ethyl-1,4-diazepan-1-yl)butyl)-6-fluoro-3-isopentylquinazolin-4(3H)-one]
6 | < 0.5 | > 1 | CCC[C@H](c1nc2c(F)cccc2c(=O)n1CC)N1CCCN(C)CC1 [Example 248, (R)-3-ethyl-8-fluoro-2-(1-(4-methyl-1,4-diazepan-1-yl)butyl)quinazolin-4(3H)-one]
7 | 0.5 to 5 | > 1 | CCCC(c1nc2ncccc2c(=O)n1CC)N1CCCNCC1 (stereo not shown) [Example 179, 2-(1-(1,4-diazepan-1-yl)butyl)-3-ethylpyrido[2,3-d]pyrimidin-4(3H)-one]
8 | < 0.5 | > 1 | CCC[C@H](c1nc2ncc(F)cc2c(=O)n1CC1CC1)N1CCN[C@@H](C)CC1 [Example 195, 3-(cyclopropylmethyl)-6-fluoro-2-((R)-1-((S)-5-methyl-1,4-diazepan-1-yl)butyl)pyrido[2,3-d]pyrimidin-4(3H)-one]
9 | < 0.5 | > 1 | CCCC(c1nc2ccc(Br)c(F)c2c(=O)n1CC)N1CCCNCC1 (stereo not shown) [Example 59, 2-(1-(1,4-diazepan-1-yl)butyl)-6-bromo-3-ethyl-5-fluoroquinazolin-4(3H)-one]
10 | > 5 | > 1 | CCC[C@@H](c1nc2cc(F)c(Cl)cc2c(=O)n1CC)N1CCNC[C@@H](C)C1 [Example 121, 6-chloro-3-ethyl-7-fluoro-2-((S)-1-((R)-6-methyl-1,4-diazepan-1-yl)butyl)quinazolin-4 (3H)-one]
11 | > 5 | > 1 | CCCC(c1nc2c(Cl)cc(F)cc2c(=O)n1CC)N1CCCN(CC)CC1 (stereo not shown) [Example 65, 8-chloro-3-ethyl-2-(1-(4-ethyl-1,4-diazepan-1-yl)butyl)-6-fluoroquinazolin-4(3H)-one]
12 | > 5 | > 1 | CCC[C@@H](c1nc2cc(F)c(Cl)cc2c(=O)n1CC)N1CCNC[C@H](C)C1 [Example 120, 6-chloro-3-ethyl-7-fluoro-2-((S)-1-((S)-6-methyl-1,4-diazepan-1-yl)butyl)quinazolin-4(3H)-one]
13 | < 0.5 | > 1 | CCC[C@H](c1nc2ccc(Br)cc2c(=O)n1CCC)N1CCNC[C@@H](C)C1 [Example 68, 6-bromo-2-((R)-1-((R)-6-methyl-1,4-diazepan-1-yl)butyl)-3-propylquinazolin-4(3H)-one]
14 | 0.5 to 5 | < 0.5 | CCCC(c1nc2ccc(F)cc2c(=O)n1CC)C1CCCN(CC)CC1 (stereo not shown) [Example 268, 3-ethyl-2-(1-(1-ethylazepan-4-yl)butyl)-6-fluoroquinazolin-4(3H)-one]
15 | < 0.5 | > 1 | CCCC(c1nc2cc(Br)ccc2c(=O)n1CC)N1CCCN(C)CC1 (stereo not shown) [Example 3, 7-bromo-3-ethyl-2-(1-(4-methyl-1,4-diazepan-1-yl)butyl)quinazolin-4(3H)-one]
16 | < 0.5 | > 1 | CCC[C@H](c1nc2ccncc2c(=O)n1CC)N1CCNC[C@H](C)C1 [Example 164, 3-ethyl-2-((R)-1-((S)-6-methyl-1,4-diazepan-1-yl)butyl)pyrido[4,3-d]pyrimidin-4(3H)-one]
17 | < 0.5 | > 1 | CCCC(c1nc2cc(F)c(F)cc2c(=O)n1CC)N1CCCNCC1 (stereo not shown) [Example 45, 2-(1-(1,4-diazepan-1-yl)butyl)-3-ethyl-6,7-difluoroquinazolin-4(3H)-one]
18 | > 5 | > 1 | CCC[C@@H](c1nc2ccc(Br)cc2c(=O)n1CC)N1CCCN[C@@H](C)C1 [Example 140, 6-bromo-3-ethyl-2-((S)-1-((S)-3-methyl-1,4-diazepan-1-yl)butyl)quinazolin-4(3H)-one]

Row | Ki [1] [µM] | Ki [2] [µM] | SMILES
19 | > 5 | 0.5 to 1 | CC[C@H]1CCn2c(nc3ccc(Br)cc3c2=O)[C@@H]1N1CCCN(C)CC1 [Example 270, (6R,7S)-2-bromo-7-ethyl-6-(4-methyl-1,4-diazepan-1-yl)-8,9-dihydro-6H-pyrido[2,1-b]quinazolin-11(7H)-one]
20 | > 5 | 0.5 to 1 | CCC[C@@H](c1nc2cc(Cl)c(Cl)cc2c(=O)n1CC)N1CCN(C)C[C@@H](C)C1 [Example 134, 6,7-dichloro-2-((S)-1-((R)-4,6-dimethyl-1,4-diazepan-1-yl)butyl)-3-ethylquinazolin-4(3H)-one]
21 | > 5 | > 1 | CCCC(c1nc2ccc(Br)cc2c(=O)n1CC)N1CCN(C)CC(F)(F)C1 (stereo not shown) [Example 42, 6-bromo-2-(1-(6,6-difluoro-4-methyl-1,4-diazepan-1-yl)butyl)-3-ethylquinazolin-4(3H)-one]
22 | < 0.5 | > 1 | CCCC(c1nc2ccc(NC3CCN(C)CC3)cc2c(=O)n1CC)N1CCCN(C)CC1 (stereo not shown) [Example 206, 3-Ethyl-2-(1-(4-methyl-1,4-diazepan-1-yl)butyl)-6-((1-methylpiperidin-4-yl)amino)quinazolin-4(3H)-one]
23 | < 0.5 | 0.5 to 1 | CCC[C@H](c1nc2cc(OC)c(F)cc2c(=O)n1CC)N1CCCN(C)CC1 [Example 230, (R)-3-ethyl-6-fluoro-7-methoxy-2-(1-(4-methyl-1,4-diazepan-1-yl)butyl)quinazolin-4(3H)-one]
24 | < 0.5 | > 1 | CCC[C@H](c1nc2ncc(Br)cc2c(=O)n1CC)N1CCN(C)C[C@@H](C)C1 [Example 186, 6-bromo-2-((R)-1-((R)-4,6-dimethyl-1,4-diazepan-1-yl)butyl)-3-ethylpyrido[2,3-d]pyrimidin-4(3H)-one]
25 | > 5 | > 1 | CCC[C@@H](c1nc2ncc(F)cc2c(=O)n1CC1CC1)N1CCN[C@H](C)CC1 [Example 193, 3-(cyclopropylmethyl)-6-fluoro-2-((S)-1-((R)-5-methyl-1,4-diazepan-1-yl)butyl)pyrido[2,3-d]pyrimidin-4(3H)-one]
26 | < 0.5 | > 1 | CCCC(c1nc2ncc(F)cc2c(=O)n1CC)N1CCCN(C)CC1 (stereo not shown) [Example 182]
27 | > 5 | 0.5 to 1 | CC[C@@H]1CCn2c(nc3ccc(Br)cc3c2=O)[C@H]1N1CCCN(C)CC1 [Example 269, (6S,7R)-2-Bromo-7-ethyl-6-(4-methyl-1,4-diazepan-1-yl)-8,9-dihydro-6H-pyrido[2,1-b]quinazolin-11(7H)-one]
28 | > 5 | < 0.5 | CCC[C@@H](c1nc2ccc(Cl)cc2c(=O)n1C)N1CCCN[C@@H](C)C1 [Example 149, 6-chloro-3-methyl-2-((S)-1-((S)-3-methyl-1,4-diazepan-1-yl)butyl)quinazolin-4(3H)-one]
29 | 0.5 to 5 | > 1 | CCC[C@@H](c1nc2cc(F)c(Br)cc2c(=O)n1CC)N1CCN(C)C[C@@H](C)C1 [Example 129, 6-bromo-2-((S)-1-((R)-4,6-dimethyl-1,4-diazepan-1-yl)butyl)-3-ethyl-7-fluoroquinazolin-4(3H)-one]
30 | > 5 | < 0.5 | CCC[C@H](c1nc2ccc(F)cc2c(=O)n1C(C)C)N1CCCN(CC)CC1 [Example 223, (R)-2-(1-(4-ethyl-1,4-diazepan-1-yl)butyl)-6-fluoro-3-isopropylquinazolin-4(3H)-one]
31 | > 5 | > 1 | CCCC(c1nc2ccc(Br)cc2c(=O)n1CC)N1CCN(C)CC(C)(C)C1 (stereo not shown) [Example 30, 6-bromo-3-ethyl-2-(1-(4,6,6-trimethyl-1,4-diazepan-1-yl)butyl)quinazolin-4(3H)-one]
32 | < 0.5 | < 0.5 | CCC[C@H](c1nc2cc(Cl)c(Cl)cc2c(=O)n1CC)N1CCN(C)C[C@H](C)C1 [Example 131, 6,7-Dichloro-2-((R)-1-((S)-4,6-dimethyl-1,4-diazepan-1-yl)butyl)-3-ethylquinazolin-4(3H)-one]
33 | > 5 | > 1 | CCC[C@@H](c1nc2ccncc2c(=O)n1CC)N1CCCN(C)CC1 [Example 174, (S)-3-ethyl-2-(1-(4-methyl-1,4-diazepan-1-yl)butyl)pyrido[4,3-d]pyrimidin-4(3H)-one]
34 | < 0.5 | < 0.5 | CCCC(c1nc2ccc(F)c(F)c2c(=O)n1CC)N1CCCN(C)CC1 (stereo not shown) [Example 72, 3-ethyl-5,6-difluoro-2-(1-(4-methyl-1,4-diazepan-1-yl)butyl)quinazolin-4(3H)-one]
35 | > 5 | < 0.5 | CCCC(c1nc2ccc(Br)cc2c(=O)n1CC)N1CCCN(Cc2ccccc2)CC1 (stereo not shown) [Example 6, 2-(1-(4-benzyl-1,4-diazepan-1-yl)butyl)-6-bromo-3-ethylquinazolin-4(3H)-one]
